ChEMBL document CHEMBL1144130, “11-Deoxyfistularin-3, a new cytotoxic metabolite from the caribbean sponge Aplysina fistularis insularis” (1999)
Converted amounts (≈) assume the structure as drawn.

Key:
Assay type in all cases: functional
LoVo = assay: Cytotoxicity against human LoVo cells after 96 hrs by MTT assay; conditions: read-out: LD50 (the source's name)
RD = assay: Cytotoxicity against human RD cells after 96 hrs by MTT assay; conditions: read-out: LD50 (the source's name)
HEp-2 = assay: Cytotoxicity against human Hep2 cells after 96 hrs by MTT assay; conditions: HEp-2, 96 h, read-out: LD50 (the source's name)
HeLa = assay: Cytotoxicity against human HeLa cells after 96 hrs by MTT assay; conditions: read-out: LD50 (the source's name)
MCF7 = assay: Cytotoxicity against human MCF7 cells after 96 hrs by MTT assay; conditions: MCF7, 96 h, read-out: LD50 (the source's name)
[1] = Cytotoxicity against human XL17 cells after 96 hrs by MTT assay; conditions: XL17, 96 h, read-out: LD50 (the source's name)

## COC1=C(Br)[C@H](O)[C@@]2(C=C1Br)CC(C(=O)NCCCOc1c(Br)cc(C(O)CNC(=O)C3=NO[C@]4(C=C(Br)C(OC)=C(Br)[C@@H]4O)C3)cc1Br)=NO2 (stereo partly specified)
LoVo
  CC50: 17 µg/mL (≈ 15.5 µM)
RD
  CC50: 17 µg/mL (≈ 15.5 µM)
HEp-2
  CC50: 17 µg/mL (≈ 15.5 µM)
HeLa
  CC50: 17 µg/mL (≈ 15.5 µM)
MCF7
  CC50: > 50 µg/mL
[1]
  CC50: 17 µg/mL (≈ 15.5 µM)
